Source: paper PMC5218480 (PLoS ONE, 2017)

Tested on: MV-4-11 cells
Assay: Gene expression microarray analysis (Affymetrix PrimeView) and GSEA
Assay type: cell-based, human
Parameters: RFU PODN (11730768_x_at) / Fold change /veh PODN (11730768_x_at) / RFU LINC00158 (11744669_a_at) / Fold change /veh LINC00158 (11744669_a_at) / RFU DUSP10 (11751237_a_at) / Fold change /veh DUSP10 (11751237_a_at) / RFU ID3 (11757404_x_at) / Fold change /veh ID3 (11757404_x_at) / RFU PLEKHG5 (11737974_s_at) / Fold change /veh PLEKHG5 (11737974_s_at) / RFU LRRC4B (11730491_at) / Fold change /veh LRRC4B (11730491_at) / RFU GIMAP4 (11747438_a_at) / Fold change /veh GIMAP4 (11747438_a_at) / RFU KRT8 (11758183_x_at) / Fold change /veh KRT8 (11758183_x_at) / RFU CNN1 (11734310_a_at) / Fold change /veh CNN1 (11734310_a_at) / RFU VPS37D (11726825_at) / Fold change /veh VPS37D (11726825_at) / RFU C10orf10 (11716522_x_at) / Fold change /veh C10orf10 (11716522_x_at) / RFU KIR2DL2 /// KIR2DL4 /// KIR2DL5A /// KIR2DL5B /// KIR2DS1 /// KIR2DS2 /// KIR2DS3 /// KIR2DS4 /// KIR3DL3 /// KIR3DL3 /// KIR3DS1 (11738374_at) / Fold change /veh KIR2DL2 /// KIR2DL4 /// KIR2DL5A /// KIR2DL5B /// KIR2DS1 /// KIR2DS2 /// KIR2DS3 /// KIR2DS4 /// KIR3DL3 /// KIR3DL3 /// KIR3DS1 (11738374_at) / RFU C1QL1 (11718748_at) / Fold change /veh C1QL1 (11718748_at) / RFU TMPRSS4 (11747572_a_at) / Fold change /veh TMPRSS4 (11747572_a_at) / RFU HAMP (11756126_x_at) / Fold change /veh HAMP (11756126_x_at) / RFU RNFT2 (11725882_a_at) / Fold change /veh RNFT2 (11725882_a_at) / RFU NR4A2 (11747474_a_at) / Fold change /veh NR4A2 (11747474_a_at) / RFU ABCC12 (11746883_a_at) / Fold change /veh ABCC12 (11746883_a_at) / RFU TMEM136 (11760407_x_at) / Fold change /veh TMEM136 (11760407_x_at) / RFU CLDN22 /// WWC2 (11732394_at) / Fold change /veh CLDN22 /// WWC2 (11732394_at) / RFU HLA-DPB1 (11760878_x_at) / Fold change /veh HLA-DPB1 (11760878_x_at) / RFU SPINT1 (11716480_a_at) / Fold change /veh SPINT1 (11716480_a_at) / RFU GAP43 (11754022_s_at) / Fold change /veh GAP43 (11754022_s_at) / RFU A4GNT (11735810_at) / Fold change /veh A4GNT (11735810_at) / RFU PRB3 (11715151_x_at) / Fold change /veh PRB3 (11715151_x_at) / RFU TUBB4B (11761932_at) / Fold change /veh TUBB4B (11761932_at) / RFU CAPN14 (11732068_a_at) / Fold change /veh CAPN14 (11732068_a_at) / RFU TMCC2 (11721928_a_at) / Fold change /veh TMCC2 (11721928_a_at) / RFU IRGQ (11745062_a_at) / Fold change /veh IRGQ (11745062_a_at) / RFU FAM174B (11720279_a_at) / Fold change /veh FAM174B (11720279_a_at) / RFU TMPRSS4 (11748680_a_at) / Fold change /veh TMPRSS4 (11748680_a_at) / RFU FAM212B (11763350_a_at) / Fold change /veh FAM212B (11763350_a_at) / RFU PLEKHG5 (11743358_a_at) / Fold change /veh PLEKHG5 (11743358_a_at) / RFU ZSCAN30 (11745921_a_at) / Fold change /veh ZSCAN30 (11745921_a_at) / RFU CMKLR1 (11741424_a_at) / Fold change /veh CMKLR1 (11741424_a_at) / RFU LOC101060620 /// MAPK8IP1 (11723275_at) / Fold change /veh LOC101060620 /// MAPK8IP1 (11723275_at) / RFU SPTSSB (11747773_x_at) / Fold change /veh SPTSSB (11747773_x_at) / RFU PRSS12 (11739890_at) / Fold change /veh PRSS12 (11739890_at) / RFU BIN1 (11741810_x_at) / Fold change /veh BIN1 (11741810_x_at) / RFU WNT11 (11732464_a_at) / Fold change /veh WNT11 (11732464_a_at) / RFU C10orf10 (11716521_a_at) / Fold change /veh C10orf10 (11716521_a_at) / RFU C5orf56 (11738089_at) / Fold change /veh C5orf56 (11738089_at) / RFU CYB561 (11721691_x_at) / Fold change /veh CYB561 (11721691_x_at) / RFU ANKRD19P (11752326_a_at) / Fold change /veh ANKRD19P (11752326_a_at) / RFU OR2T12 /// OR2T33 /// OR2T8 (11738714_s_at) / Fold change /veh OR2T12 /// OR2T33 /// OR2T8 (11738714_s_at) / RFU VCAN (11748164_a_at) / Fold change /veh VCAN (11748164_a_at) / RFU JSRP1 (11732532_at) / Fold change /veh JSRP1 (11732532_at) / RFU KRTAP10-11 (11738290_x_at) / Fold change /veh KRTAP10-11 (11738290_x_at) / RFU MYO3A (11730013_a_at) / Fold change /veh MYO3A (11730013_a_at) / RFU EBF3 (11725865_a_at) / Fold change /veh EBF3 (11725865_a_at) / RFU CAMK2N1 (11719241_x_at) / Fold change /veh CAMK2N1 (11719241_x_at) / RFU C5orf56 (11738088_a_at) / Fold change /veh C5orf56 (11738088_a_at) / RFU OLFML3 (11715873_a_at) / Fold change /veh OLFML3 (11715873_a_at) / RFU LOC100653217 /// NTM (11731650_a_at) / Fold change /veh LOC100653217 /// NTM (11731650_a_at) / RFU MAPK11 (11762145_a_at) / Fold change /veh MAPK11 (11762145_a_at) / RFU FIZ1 (11724087_x_at) / Fold change /veh FIZ1 (11724087_x_at) / RFU OASL (11726364_x_at) / Fold change /veh OASL (11726364_x_at) / RFU SOX15 (11748057_x_at) / Fold change /veh SOX15 (11748057_x_at) / RFU CD79A (11719716_a_at) / Fold change /veh CD79A (11719716_a_at) / RFU HIST1H1D (11736915_at) / Fold change /veh HIST1H1D (11736915_at) / RFU CASKIN2 (11723855_a_at) / Fold change /veh CASKIN2 (11723855_a_at) / RFU LOC730098 (11760151_x_at) / Fold change /veh LOC730098 (11760151_x_at) / RFU OR4N2 (11742367_at) / Fold change /veh OR4N2 (11742367_at) / RFU PRRT2 (11749266_a_at) / Fold change /veh PRRT2 (11749266_a_at) / RFU SNX32 (11753110_a_at) / Fold change /veh SNX32 (11753110_a_at) / RFU CDHR5 (11726645_a_at) / Fold change /veh CDHR5 (11726645_a_at) / RFU RCAN1 (11760418_a_at) / Fold change /veh RCAN1 (11760418_a_at) / RFU FAM167A (11723789_a_at) / Fold change /veh FAM167A (11723789_a_at) / RFU FAM26E (11764081_at) / Fold change /veh FAM26E (11764081_at) / RFU ISYNA1 (11749810_s_at) / Fold change /veh ISYNA1 (11749810_s_at) / RFU ACY1 (11761880_at) / Fold change /veh ACY1 (11761880_at) / RFU 11764098_at / Fold change /veh 11764098_at / RFU SAMD14 (11745864_x_at) / Fold change /veh SAMD14 (11745864_x_at) / RFU NPB (11741838_a_at) / Fold change /veh NPB (11741838_a_at) / RFU TMPRSS6 (11731388_a_at) / Fold change /veh TMPRSS6 (11731388_a_at) / RFU KRTAP10-2 (11738614_at) / Fold change /veh KRTAP10-2 (11738614_at) / RFU ARHGAP8 /// PRR5-ARHGAP8 (11727945_x_at) / Fold change /veh ARHGAP8 /// PRR5-ARHGAP8 (11727945_x_at) / RFU KRTAP5-7 /// NADSYN1 (11734609_at) / Fold change /veh KRTAP5-7 /// NADSYN1 (11734609_at) / RFU RASL12 (11751679_a_at) / Fold change /veh RASL12 (11751679_a_at) / RFU CDKN2B (11736163_a_at) / Fold change /veh CDKN2B (11736163_a_at) / RFU PRF1 (11729649_at) / Fold change /veh PRF1 (11729649_at) / RFU, ZNF638 /// ZNF638-IT1 / Fold change vs veh, ZNF638 /// ZNF638-IT1 / RFU, PANK3 / Fold change vs veh, PANK3 / RFU, SH3YL1 / Fold change vs veh, SH3YL1 / RFU, ZEB2 / Fold change vs veh, ZEB2 / RFU, NRIP1 / Fold change vs veh, NRIP1 / RFU, PTTG1IP / Fold change vs veh, PTTG1IP / RFU, CAPN2 / Fold change vs veh, CAPN2 / RFU, MED14 / Fold change vs veh, MED14 / RFU, SNORA58 / Fold change vs veh, SNORA58 / RFU, C1orf63 / Fold change vs veh, C1orf63 / RFU, LRRFIP1 / Fold change vs veh, LRRFIP1 / RFU, NDUFAF7 / Fold change vs veh, NDUFAF7 / RFU, SLC12A2 / Fold change vs veh, SLC12A2 / RFU, IBTK / Fold change vs veh, IBTK / RFU, ESF1 / Fold change vs veh, ESF1 / Fold change vs veh, TMEM50B / RFU, TAOK1 / Fold change vs veh, TAOK1 / RFU, ACBD3 / Fold change vs veh, ACBD3 / RFU, TMA16 / Fold change vs veh, TMA16 / RFU, RWDD3 / Fold change vs veh, RWDD3 / RFU, BCAT1 / Fold change vs veh, BCAT1 / RFU, EDEM3 / Fold change vs veh, EDEM3 / RFU, TMEM33 / Fold change vs veh, TMEM33 / RFU, WDR75 / Fold change vs veh, WDR75 / RFU, AHCTF1 / Fold change vs veh, AHCTF1 / RFU, TFRC / Fold change vs veh, TFRC / RFU, ZDHHC17 / Fold change vs veh, ZDHHC17 / RFU, NOM1 / Fold change vs veh, NOM1 / RFU, ARL8B / Fold change vs veh, ARL8B / RFU, ZBTB11 / Fold change vs veh, ZBTB11 / RFU, TAMM41 / Fold change vs veh, TAMM41 / RFU, KIAA1704 /// LOC100996395 / Fold change vs veh, KIAA1704 /// LOC100996395 / RFU, ING1 / Fold change vs veh, ING1 / RFU, TRMT61B / Fold change vs veh, TRMT61B / RFU, FUBP3 / Fold change vs veh, FUBP3 / RFU, TP53 / Fold change vs veh, TP53 / RFU, TNKS2 / Fold change vs veh, TNKS2 / RFU, ZFP14 / Fold change vs veh, ZFP14 / RFU, ACTR2 / Fold change vs veh, ACTR2 / RFU, PPP3R1 / Fold change vs veh, PPP3R1 / RFU, PIK3R1 / Fold change vs veh, PIK3R1 / RFU, HNRNPA1 / Fold change vs veh, HNRNPA1 / RFU, RNF170 / Fold change vs veh, RNF170 / RFU, ZNF28 / Fold change vs veh, ZNF28 / RFU, RNGTT / Fold change vs veh, RNGTT / RFU, OGT / Fold change vs veh, OGT / RFU, BRD1 / Fold change vs veh, BRD1 / RFU, MARS / Fold change vs veh, MARS / RFU, ZNF655 / Fold change vs veh, ZNF655 / RFU, FAHD1 / Fold change vs veh, FAHD1 / RFU, BDP1 / Fold change vs veh, BDP1 / RFU, LRRCC1 / Fold change vs veh, LRRCC1 / RFU, ARID1A / Fold change vs veh, ARID1A / RFU, ZNF146 / Fold change vs veh, ZNF146 / RFU, ZNF330 / Fold change vs veh, ZNF330 / RFU, GPN3 / Fold change vs veh, GPN3 / RFU, C9orf123 / Fold change vs veh, C9orf123 / RFU, N4BP2L2 / Fold change vs veh, N4BP2L2 / RFU, ARFIP1 / Fold change vs veh, ARFIP1 / RFU, FAM179B / Fold change vs veh, FAM179B / RFU, BCL10 / Fold change vs veh, BCL10 / RFU, UHRF1BP1L / Fold change vs veh, UHRF1BP1L / RFU, BET1 / Fold change vs veh, BET1 / RFU, CNOT2 / Fold change vs veh, CNOT2 / RFU, ZNF268 / Fold change vs veh, ZNF268 / Fold change vs veh, ZNF507 / RFU, DGCR2 / Fold change vs veh, DGCR2 / RFU, WDSUB1 / Fold change vs veh, WDSUB1 / Fold change vs veh, HSP90B1 /// MIR3652 / RFU, ADSS / Fold change vs veh, ADSS / RFU, GK / Fold change vs veh, GK / RFU, ZNF148 / Fold change vs veh, ZNF148 / RFU, TAF9 / Fold change vs veh, TAF9 / RFU, SLC1A5 / Fold change vs veh, SLC1A5 / RFU, SLMO2 / Fold change vs veh, SLMO2 / RFU, ABCC4 / Fold change vs veh, ABCC4 / RFU, LOC101060439 /// RAP1B / Fold change vs veh, LOC101060439 /// RAP1B / RFU, RFX7 / Fold change vs veh, RFX7 / RFU, GTPBP10 / Fold change vs veh, GTPBP10 / RFU, CNEP1R1 / Fold change vs veh, CNEP1R1 / RFU, BIVM-ERCC5 /// ERCC5 / Fold change vs veh, BIVM-ERCC5 /// ERCC5 / RFU, ILF3 / Fold change vs veh, ILF3 / RFU 11762660_at / Fold change /veh 11762660_at / RFU VCAN (11757783_s_at) / Fold change /veh VCAN (11757783_s_at) / RFU DDX43 (11728927_at) / Fold change /veh DDX43 (11728927_at) / RFU KRT8 (11758188_x_at) / Fold change /veh KRT8 (11758188_x_at) / RFU NKD1 (11759106_at) / Fold change /veh NKD1 (11759106_at) / RFU SRD5A1 (11742802_a_at) / Fold change /veh SRD5A1 (11742802_a_at) / RFU TPSAB1 /// TPSB2 (11721975_s_at) / Fold change /veh TPSAB1 /// TPSB2 (11721975_s_at) / RFU GSTM3 (11746129_a_at) / Fold change /veh GSTM3 (11746129_a_at) / RFU IL23R (11737362_x_at) / Fold change /veh IL23R (11737362_x_at) / RFU TMEM51 (11727254_a_at) / Fold change /veh TMEM51 (11727254_a_at) / RFU PIWIL2 (11732686_x_at) / Fold change /veh PIWIL2 (11732686_x_at) / RFU ORM1 (11744905_x_at) / Fold change /veh ORM1 (11744905_x_at) / RFU CCDC152 (11743942_at) / Fold change /veh CCDC152 (11743942_at) / RFU ECM1 (11717891_a_at) / Fold change /veh ECM1 (11717891_a_at) / RFU IL23R (11748794_a_at) / Fold change /veh IL23R (11748794_a_at) / RFU TNFAIP8L3 (11732012_x_at) / Fold change /veh TNFAIP8L3 (11732012_x_at) / RFU MBOAT4 (11741988_at) / Fold change /veh MBOAT4 (11741988_at) / RFU 11764193_at / Fold change /veh 11764193_at / RFU TMEM53 (11763286_at) / Fold change /veh TMEM53 (11763286_at) / RFU MAGEB2 (11727129_at) / Fold change /veh MAGEB2 (11727129_at) / RFU TMEM200A (11744735_a_at) / Fold change /veh TMEM200A (11744735_a_at) / RFU CCDC152 (11751479_a_at) / Fold change /veh CCDC152 (11751479_a_at) / RFU FAM211A (11726209_a_at) / Fold change /veh FAM211A (11726209_a_at) / RFU RGS16 (11746705_a_at) / Fold change /veh RGS16 (11746705_a_at) / RFU VCAN (11755009_s_at) / Fold change /veh VCAN (11755009_s_at) / RFU RHOB (11743442_s_at) / Fold change /veh RHOB (11743442_s_at) / RFU RGS16 (11720943_a_at) / Fold change /veh RGS16 (11720943_a_at) / RFU RGS16 (11720944_at) / Fold change /veh RGS16 (11720944_at) / RFU, VPS4B / Fold change vs veh, VPS4B / RFU, CREB1 / Fold change vs veh, CREB1 / RFU, DNAJC13 / Fold change vs veh, DNAJC13 / RFU, GNAQ / Fold change vs veh, GNAQ / RFU, CDK5R1 / Fold change vs veh, CDK5R1 / RFU, ZRANB3 / Fold change vs veh, ZRANB3 / RFU, CUL4A / Fold change vs veh, CUL4A / RFU, CCNY / Fold change vs veh, CCNY / RFU, UFL1 / Fold change vs veh, UFL1 / RFU, COG3 / Fold change vs veh, COG3 / RFU, DIAPH2 / Fold change vs veh, DIAPH2 / RFU, SKA2 / Fold change vs veh, SKA2 / RFU, AFF3 / Fold change vs veh, AFF3 / RFU, LMF1 / Fold change vs veh, LMF1 / RFU, IPO11 / Fold change vs veh, IPO11 / RFU, DFFB / Fold change vs veh, DFFB / RFU, FOXP1 / Fold change vs veh, FOXP1 / RFU, CARD8 / Fold change vs veh, CARD8 / RFU, STRN3 / Fold change vs veh, STRN3 / RFU, ADK / Fold change vs veh, ADK / RFU, RASSF2 / Fold change vs veh, RASSF2 / RFU, WIPF1 / Fold change vs veh, WIPF1 / RFU, LARP1B / Fold change vs veh, LARP1B / RFU, RASA1 / Fold change vs veh, RASA1 / RFU, RB1 / Fold change vs veh, RB1 / RFU, PPFIA1 / Fold change vs veh, PPFIA1 / RFU, MAT2A / Fold change vs veh, MAT2A / RFU, CCT5 / Fold change vs veh, CCT5 / RFU, WDR92 / Fold change vs veh, WDR92 / RFU, CUX1 / Fold change vs veh, CUX1 / RFU, TTC7A / Fold change vs veh, TTC7A / RFU, TMEM135 / Fold change vs veh, TMEM135 / RFU, DEPTOR / Fold change vs veh, DEPTOR / RFU, CPM / Fold change vs veh, CPM / RFU, DNAJB6 / Fold change vs veh, DNAJB6 / RFU, CACNA2D3 / Fold change vs veh, CACNA2D3 / RFU, DTX4 / Fold change vs veh, DTX4 / RFU, TFCP2 / Fold change vs veh, TFCP2 / RFU, GMCL1 /// GMCL1P1 / Fold change vs veh, GMCL1 /// GMCL1P1 / RFU, AEBP2 / Fold change vs veh, AEBP2 / RFU, SNHG1 /// SNORD22 /// SNORD25 /// SNORD26 /// SNORD27 /// SNORD28 /// SNORD29 /// SNORD31 / Fold change vs veh, SNHG1 /// SNORD22 /// SNORD25 /// SNORD26 /// SNORD27 /// SNORD28 /// SNORD29 /// SNORD31 / Fold change (Aza/veh), C12orf56 (ProbeSet 11735607_a_at) / Fold change (ACY-1035/veh), C12orf56 (ProbeSet 11735607_a_at) / Fold change (Aza/veh), FGFR1OP (ProbeSet 11751329_s_at) / Fold change (ACY-1035/veh), FGFR1OP (ProbeSet 11751329_s_at) / Fold change (Aza/veh), VPS36 (ProbeSet 11739960_a_at) / Fold change (ACY-1035/veh), VPS36 (ProbeSet 11739960_a_at) / RFU SYPL1 (11715823_x_at) / Fold change /veh SYPL1 (11715823_x_at) / RFU IGFBP7 (11715501_s_at) / Fold change /veh IGFBP7 (11715501_s_at) / RFU REEP3 (11722064_at) / Fold change /veh REEP3 (11722064_at) / RFU IGLL1 (11728026_x_at) / Fold change /veh IGLL1 (11728026_x_at): dose or concentration left out as unconfirmed
Details: MV-4-11 cells, 48 hours

Q: With Nc1ccc(-c2cccs2)cc1NC(=O)c1ccc2c(c1)cc(C1CC1)n2CCN1CCOCC1 [ACY-1035] as the compound, how does the “Fold change /veh CNN1 (11734310_a_at)” value read?
A: 1.19
